From patent publication US20230266302A1, “SYNTHESIS AND USE OF N-BENZYL SULFONAMIDES” (THE UNIVERSITY OF TULSA, priority 2020, published 2023)

Key:
Assay in all cases: ATP level assay (CellTiter-Glo), percent of control
Format in all cases: cell-based
MCF7 (breast cancer) = conditions: two hour incubation; for activity at 100 µM: Homo sapiens, MCF7, 2 h, compound alone, control DMSO, read-out: POC (percent of control) MCF7
[1] = tested on: BxPC3 (pancreatic cancer); conditions: two hour incubation; for activity at 100 µM: Homo sapiens, BXPC-3, 2 h, compound alone, control DMSO, read-out: POC (percent of control) BxPC3
H293 (kidney cancer) = conditions: two hour incubation; for activity at 100 µM: 2 h, compound alone, control DMSO, read-out: POC (percent of control) H293
[2] = tested on: MCF10A (non-cancerous breast); conditions: two hour incubation; for activity at 100 µM: Homo sapiens, MCF-10A, 2 h, compound alone, control DMSO, read-out: POC (percent of control) MCF10A
MDA-MB (breast cancer) = conditions: two hour incubation; for activity at 100 µM: 2 h, compound alone, control DMSO, read-out: POC (percent of control) MDA-MB
T47D (breast cancer) = conditions: two hour incubation; for activity at 100 µM: Homo sapiens, T47D, 2 h, compound alone, control DMSO, read-out: POC (percent of control) T47D
HDF (normal cells) = conditions: two hour incubation; for activity at 100 µM: 2 h, compound alone, control DMSO, read-out: POC (percent of control) HDF
HeLa (cervical cancer) = conditions: two hour incubation; for activity at 100 µM: Homo sapiens, HeLa, 2 h, compound alone, control DMSO, read-out: POC (percent of control) HeLa
NCI-H196 (lung cancer) = conditions: two hour incubation; for activity at 100 µM: NCI-H196, 2 h, compound alone, control DMSO, read-out: POC (percent of control) NCI-H196
[3] = compound 100 uM + 2DG (about 10-20 mM)
[4] = compound 100 uM + rotenone (approximately 1.25 μM)

| Compound | activity at 100 µM (MCF7 (breast cancer)) [%] | POC (percent of control) MCF7 (MCF7 (breast cancer); [3]) | POC (percent of control) MCF7 (MCF7 (breast cancer); [4]) | activity at 100 µM [1] [%] | POC (percent of control) BxPC3 [1, 4] | activity at 100 µM (H293 (kidney cancer)) [%] | POC (percent of control) H293 (H293 (kidney cancer); [3]) | POC (percent of control) H293 (H293 (kidney cancer); [4]) | activity at 100 µM [2] [%] | POC (percent of control) MCF10A [2, 3] | POC (percent of control) MCF10A [2, 4] | activity at 100 µM (MDA-MB (breast cancer)) [%] | POC (percent of control) MDA-MB (MDA-MB (breast cancer); [3]) | POC (percent of control) MDA-MB (MDA-MB (breast cancer); [4]) | activity at 100 µM (T47D (breast cancer)) [%] | POC (percent of control) T47D (T47D (breast cancer); [3]) | POC (percent of control) T47D (T47D (breast cancer); [4]) | activity at 100 µM (HDF (normal cells)) [%] | POC (percent of control) HDF (HDF (normal cells); [3]) | POC (percent of control) HDF (HDF (normal cells); [4]) | further results |
| --- | --- | --- | --- | --- | --- | --- | --- | --- | --- | --- | --- | --- | --- | --- | --- | --- | --- | --- | --- | --- | --- |
| Cc1cccc2c(CNS(=O)(=O)c3ccccc3)c[nH]c12 [Compound 6, N-[(7-methyl-1H-indol-3-yl)methyl]benzenesulfonamide] | 72 | 41% of control | 63.4% of control | 68.9 | 69.7% of control | 62.6 | 31.6% of control | 49.6% of control | 52.3 | 41.3% of control | 87.8% of control | 57.2 | 58.5% of control | 67.3% of control | 23.7 | 19.7% of control | 39.1% of control | 48.8 | 37.7% of control | 61.3% of control | POC (percent of control) BxPC3 [1, 3]: 33.4% of control; activity at 100 µM (HeLa (cervical cancer)): 75.3%; POC (percent of control) HeLa (HeLa (cervical cancer); [3]): 47.3% of control; POC (percent of control) HeLa (HeLa (cervical cancer); [4]): 66.9% of control; activity at 100 µM (NCI-H196 (lung cancer)): 64.3%; POC (percent of control) NCI-H196 (NCI-H196 (lung cancer); [3]): 34.3% of control; POC (percent of control) NCI-H196 (NCI-H196 (lung cancer); [4]): 23.7% of control |
| Cc1ccc(S(=O)(=O)NCc2c[nH]c3cccc(Br)c23)cc1 [Compound 5, N-[(4-bromo-1H-indol-3-yl)methyl]-4-methylbenzenesulfonamide] | 86.4 | 18.7% of control | 55.6% of control | 54.3 | 36.5% of control | 49.7 | 17.2% of control | 41.2% of control | 55.3 | 15.8% of control | 45% of control | 54.4 | 24.7% of control | 24.6% of control | 36.6 | 13.8% of control | 36% of control | 70.5 | 16.1% of control | 83.5% of control | POC (percent of control) BxPC3 [1, 3]: 10.5% of control; activity at 100 µM (HeLa (cervical cancer)): 76.1%; POC (percent of control) HeLa (HeLa (cervical cancer); [3]): 22.3% of control; POC (percent of control) HeLa (HeLa (cervical cancer); [4]): 31.9% of control; activity at 100 µM (NCI-H196 (lung cancer)): 47.7%; POC (percent of control) NCI-H196 (NCI-H196 (lung cancer); [3]): 4.2% of control; POC (percent of control) NCI-H196 (NCI-H196 (lung cancer); [4]): 9.1% of control |
| O=S(=O)(NCc1c[nH]c2ccccc12)c1ccc(Cl)cc1 [Compound 2, N-[(1H-indol-3-yl)methyl]-4-chlorobenzenesulfonamide] | 70.1 | 25.1% of control | 56.9% of control | 69 | 86.4% of control | 43.8 | 20% of control | 47.6% of control | 42.9 | 23.7% of control | 58.7% of control | 48.1 | 37.8% of control | 55.7% of control | 22.2 | 16.6% of control | 30.8% of control | 49.3 | 37.5% of control | 57.6% of control | activity at 100 µM (HeLa (cervical cancer)): 64.6%; POC (percent of control) HeLa (HeLa (cervical cancer); [3]): 30.8% of control; POC (percent of control) HeLa (HeLa (cervical cancer); [4]): 57.5% of control; activity at 100 µM (NCI-H196 (lung cancer)): 50.9%; POC (percent of control) NCI-H196 (NCI-H196 (lung cancer); [3]): 22.9% of control; POC (percent of control) NCI-H196 (NCI-H196 (lung cancer); [4]): 23.5% of control |
